From patent publication US20240091292A1, “METHODS FOR TREATMENT OF HUMAN CANCERS USING CANNABIS COMPOSITIONS” (Apollon Formularies PLC, priority 2021, published 2024)

Columns and labels:
Type in all cases: cell-based
[1] = system: A-549; assay: 3D Cell Proliferation Screen, A-549; conditions: Homo sapiens, A549, 120 h, A-549 lung spheroids, 5 days, positive control
Experimental: (§1) Experimental Methods: 3D Cell Proliferation Assay
(§2) Cells were seeded at 1000 cells/well in media in 384-well Corning® Spheroid microplates. The microplates were incubated at 37 C in 5% CO2 incubator to allow for spheroid formation.
(§3) Aliquots of each sample were vortexed and centrifuged at 3,000 rpm (800 g) for 5 minutes at room temperature. Supernatants (500-fold stocks) were stored under sterile conditions at 4 C.
(§4) On the day of the assay, a 9-point dose-response of each 500-fold stock was prepared and added to the spheroid plates to provide final assay concentrations ranging from 1e-04 to 1-fold, in 0.2% DMSO. Final assay conditions for each sample are shown on Table 1.
(§5) Assay plates were incubated at 37 C in an atmosphere containing 5% CO2 for 5 days. […] Cell viability was determined at 5 days post-compound addition. Briefly, 3D-CellTiter Glow™ reagent (Promega) was added to assay plates per the manufacturer's recommendations. Plates were shaken until spheroids were lysed and luminescence was read at room temperature.
(§6) Cell proliferation end point was analyzed as Percent of Control (POC) using the following formula: […]
(§7) EC50, IC50 and GI50 values were calculated using nonlinear regression to fit data to a sigmoidal 4-point, 4-parameter log-logistic dose response model: […]

[2] = system: NCI-H460; assay: 3D Cell Proliferation Screen, NCI-H460; conditions: Homo sapiens, 120 h; NCI-H460 lung spheroids, 5 days; relative to T0; positive control
Experimental: as §1, §2, §3, §4, §5, §6, §7

[3] = system: PC-3; assay: 3D Cell Proliferation Screen, PC-3; conditions: Homo sapiens, 120 h, PC-3 prostate spheroids, 5 days, positive control
Experimental: as §1, §2, §3, §4, §5, §6, §7

[4] = system: BT-474; assay: 3D Cell Proliferation Screen, BT-474; conditions: Homo sapiens, 120 h; BT-474 breast spheroids, 5 days; relative to T0; positive control
Experimental: as §1, §2, §3, §4, §5, §6, §7

[5] = system: T24; assay: 3D Cell Proliferation Screen, T24; conditions: Homo sapiens, T-24, 120 h, T24 bladder spheroids, 5 days, positive control
Experimental: as §1, §2, §3, §4, §5, §6
(§8) A relative cell count EC50 is the concentration of the test compound that produces a response half-way between the maximum and baseline. Relative cell count IC50 is the concentration of the test compound that produces 50% of the cell proliferation inhibitory response or 50% cytotoxicity level. GI50 is the concentration of the test compound that produces 50% reduction in proliferation of cancer cells relative to T0. The output of each biomarker is fold-increase over vehicle control background normalized to the relative cell count in each well.
(§9) EC50, IC50 and GI50 values were calculated using nonlinear regression to fit data to a sigmoidal 4-point, 4-parameter log-logistic dose response model:
(§10) Curve-fitting and EC50 calculations were performed using the R statistical software package with R's drc library.

[6] = system: HT-29; assay: 3D Cell Proliferation Screen, HT-29; conditions: Homo sapiens, 120 h, HT-29 colon spheroids, 5 days, positive control
Experimental: as §1, §2, §3, §4, §5, §6, §8, §9, §10

[7] = system: 22Rv-1; assay: 3D Cell Proliferation Screen, 22Rv-1; conditions: Homo sapiens, 22Rv1, 120 h; 22Rv-1 prostate spheroids, 5 days; relative to T0; positive control
Experimental: as §1, §2, §3, §4, §5, §6, §7

[8] = system: T-47D; assay: 3D Cell Proliferation Screen, T-47D; conditions: Homo sapiens, T47D, 120 h, T-47D breast spheroids, 5 days, positive control
Experimental: as §1, §2, §3, §4, §5, §6, §8, §9, §10

CN[C@@H]1C[C@H]2O[C@@](C)([C@@H]1OC)n1c3ccccc3c3c4c(c5c6ccccc6n2c5c31)C(=O)NC4 [Staurosporine]
EC50 [1]: 17 nM
GI50 ([1]; relative to T0): 11 nM
GI50 [2]: 17 nM
IC50 [3]: 4 nM
GI50 ([3]; relative to T0): 1 nM
GI50 [4]: 3 nM
EC50 [5]: 13 nM
IC50 [5]: 13 nM
GI50 ([5]; relative to T0): 1 nM
EC50 [6]: 9 nM
IC50 [6]: 9 nM
GI50 ([6]; relative to T0): 7 nM
GI50 [7]: 13 nM
EC50 [8]: 101 nM
IC50 [8]: 101 nM
GI50 ([8]; relative to T0): 38 nM
